Results on 4 compounds are retold here after US4009269A, “Antibiotic compositions and methods from micromonospora purpurea JI-20” (Schering Corporation, priority 1975, dated 1977).

Usually MIC stands for the lowest concentration found to suppress growth. Read a low MIC as inhibition by little substance. By pKa is commonly meant the pH at which an ionisable group is half protonated. A high value points to a group that holds its proton tightly. Usually LD50 stands for the dose expected to kill half of the subjects tested. High values mean a less toxic substance, low ones a more toxic substance.

The subject of series [1] is Staphylococcus aureus ATCC 6538P. Put plainly: Disc-plate assay (bioassay potency). In kind it is cell-based. The conditions noted are these: for potency (assay against standard Antibiotic JI-20B base): vs standard Antibiotic JI-20B base, assigned potency 1000 mcg/mg. On the procedure:
Peak antibiotic production is determined by a disc-plate assay which uses Staphylococcus aureus ATCC 6538P as the test organism and which is performed substantially as described by Oden, et al. Antimicrobial Agents and Chemotherapy, 1963, pages 8-13.
The reference standard is Antibiotic JI-20B base having an assigned potency of 1000 mcg/mg. One (1) microgram of the standard in one (1) ml. of 0.1M phosphate buffer at pH 8.0 elicits a zonal response of 16.8± 1.5 mm. The standard Antibiotic JI-20B sulfate assays 730 mcg/mg against the standard base. Antibiotic JI-20A base and the corresponding sulfate assay 723 mcg/mg. and 527 mcg/mg., respectively, when assayed against the standard Antibiotic JI-20B base.

Series [2] concerns Klebsiella pneumonia 13883. Description: In vitro MIC, Mueller-Hinton broth. It counts as cell-based. As to conditions: Klebsiella pneumoniae, 24 hours, expressed as free base, tested as sulfate. On the procedure:
(§1) In the table set forth below are test results after 24 hours incubation against representative gram positive and gram negative bacteria.

Series [3] has as its system Klebsiella pneumoniae 18. Put plainly: In vitro MIC, Mueller-Hinton broth. In kind it is cell-based. As to conditions: 24 hours, expressed as free base, tested as sulfate. On the procedure:
as §1

The subject of series [4] is Escherichia coli 11775. Description: In vitro MIC, Mueller-Hinton broth. It counts as cell-based. The conditions noted are these: 24 hours, expressed as free base, tested as sulfate. The protocol: as §1
Series [5] concerns Pseudomonas aeruginosa 60. Put plainly: In vitro MIC, Mueller-Hinton broth. The conditions noted are these: 24 hours, expressed as free base, tested as sulfate. It counts as cell-based. On the procedure:
as §1

The test system of series [6] is Staphylococcus aureus 70. Description: In vitro MIC, Mueller-Hinton broth. In kind it is cell-based. The conditions noted are these: 24 hours, expressed as free base, tested as sulfate. On the procedure:
as §1

Series [7] relates to Staphylococcus aureus 45. Description: In vitro MIC, Mueller-Hinton broth. In kind it is cell-based. As to conditions: 24 hours, expressed as free base, tested as sulfate. The protocol:
as §1

The test system of series [8] is Pseudomonas aeruginosa 59. Description: In vitro MIC, Mueller-Hinton broth. It counts as cell-based. As to conditions: 24 hours, expressed as free base, tested as sulfate. The protocol: as §1
The subject of series [9] is Escherichia coli 12740. Description: In vitro MIC, Mueller-Hinton broth. As to conditions: 24 hours, expressed as free base, tested as sulfate. It counts as cell-based. The protocol: as §1
In series [10] the test system is Staphylococcus aureus 2059. Description: In vitro MIC, Mueller-Hinton broth. In kind it is cell-based. The conditions noted are these: 24 hours, expressed as free base, tested as sulfate. On the procedure:
as §1

Series [11] relates to Klebsiella rhinoscleromatis 18804. Put plainly: In vitro MIC, Mueller-Hinton broth. In kind it is cell-based. As to conditions: Klebsiella pneumoniae, 24 hours, expressed as free base, tested as sulfate. On the procedure:
as §1

Series [12] relates to Proteus mirabilis 8019. Put plainly: In vitro MIC, Mueller-Hinton broth. As to conditions: 24 hours, expressed as free base, tested as sulfate. In kind it is cell-based. The protocol:
as §1

Series [13] in a line: pKa. It counts as physicochemical.
A short description of series [14]: Acute toxicity. As to conditions: in vivo, iv, I.V.
Series [15] has as its system Pseudomonas aeruginosa 413. Put plainly: In vivo mouse protection test. As to conditions: ip, Pseudomonas aeruginosa 413 i.p. infection, dosed twice (0 and 4 h), survivors at 48 hours, read-out: PD50. On the procedure:
(§2) To determine the in vivo protective activity of the antibiotics against lethal infections of pathogenic bacterial origin in mice, mice were dosed twice with the individual antibiotic, with a solution or a suspension in an aqueous vehicle containing 0.5 % carboxy-methyl-cellulose (CMC), once immediately before an intraperitoneal injection of the infecting bacteria and once 4 hours after such injection. The number of survivors was determined 48 hours after infection and that data analyzed by standard probit procedures to determine PD50 values with 95% confidence limits. The following chart sets forth the protective activity of the antibiotics against a pathogenic bacterium.

In series [16] the test system is Salmonella sp. S.C. Put plainly: In vivo mouse protection test. As to conditions: 48 h, read-out: PD50. The protocol:
as §2

Series [17] concerns Staphylococcus aureus Gray 979. Description: In vivo mouse protection test. The conditions noted are these: GRAY979, ip, Staphylococcus aureus Gray 979 i.p. infection, dosed twice (0 and 4 h), survivors at 48 hours, read-out: PD50. The protocol:
as §2

The test system of series [18] is Escherichia coli 11775. Put plainly: In vivo mouse protection test. The conditions noted are these: ip, Escherichia coli 11775 i.p. infection, dosed twice (0 and 4 h), survivors at 48 hours, read-out: PD50. The protocol: as §2
Series [19] relates to Staphylococcus aureus. Put plainly: In vivo mouse protection test. The conditions noted are these: ip, Staphylococcus aureus i.p. infection, dosed twice (0 and 4 h), survivors at 48 hours, read-out: PD50. The protocol:
as §2

The test system of series [20] is Escherichia coli 626. Description: In vivo mouse protection test. The conditions noted are these: ip, Escherichia coli 626 i.p. infection, dosed twice (0 and 4 h), survivors at 48 hours, read-out: PD50. The protocol:
as §2

The subject of series [21] is Streptococcus pyogenes C2V. Put plainly: In vivo mouse protection test. The conditions noted are these: ip, Streptococcus pyogenes C2V i.p. infection, dosed twice (0 and 4 h), survivors at 48 hours, read-out: PD50. On the procedure: as §2
Series [22] concerns Pseudomonas aeruginosa 1516-7. Put plainly: In vivo mouse protection test. The conditions noted are these: 15167, ip, Pseudomonas aeruginosa 1516-7 i.p. infection, dosed twice (0 and 4 h), survivors at 48 hours, read-out: PD50. On the procedure:
as §2

Converted amounts (≈) assume the structure as drawn. Counter-ions that a name gives are not always drawn.

With `CN[C@@H]1[C@@H](O)[C@@H](O[C@@H]2[C@@H](O)[C@H](O[C@H]3O[C@H](C(C)N)[C@@H](O)[C@H](O)[C@H]3N)[C@@H](N)C[C@H]2N)OC[C@]1(C)O` (stereo partly shown) [Antibiotic JI-20B], the zone of inhibition at 1 µg/mL in series [1] (Staphylococcus aureus, ATCC6538P, 1 microgram of standard in 1 ml 0.1M phosphate buffer pH 8.0, read-out: zonal response) was determined as 16.8 ± 1.5 mm. In addition, the MIC in series [2] worked out at 0.08 µg/mL (≈ 0.161 µM); in series [3] it was 17.5 µg/mL (≈ 35.3 µM); in series [4] it was 0.8 µg/mL (≈ 1.61 µM); in series [5] it was 17.5 µg/mL (≈ 35.3 µM); in series [6], 3 µg/mL (≈ 6.05 µM); in [7] it was 0.3 µg/mL (≈ 0.605 µM). The MIC was found to be 7.5 µg/mL (≈ 15.1 µM) in [8]; 0.3 µg/mL (≈ 0.605 µM) in series [9]; 7.5 µg/mL (≈ 15.1 µM) in [10]; 0.08 µg/mL (≈ 0.161 µM) in series [11]; 0.8 µg/mL (≈ 1.61 µM) in series [12]. In addition, in series [13], the pKa was determined as 8.1. The compound also gave an LD50 in series [14] of 115 mg/kg. The ED50 came to 50 mg/kg in series [15]; 4.5 mg/kg in [16]; 2.8 mg/kg in series [17]; 8 mg/kg in [18]; 14 mg/kg in series [19]; 15 mg/kg in series [20]. Besides, the ED50 in [21] was 40 mg/kg; in [22], 50 mg/kg.
In the case of `CN[C@@H]1[C@@H](O)[C@@H](O[C@@H]2[C@@H](O)[C@H](O[C@H]3O[C@H](C(C)N)[C@@H](O)[C@H](O)[C@H]3N)[C@@H](N)C[C@H]2N)OC[C@]1(C)O` (stereo partly shown) [Antibiotic JI-20B sulfate], the “potency (assay against standard Antibiotic JI-20B base)” value in [1] came out at 730 µg/mg.
Still for that read-out and setting: the same measure for `CNC1C(O)C(OC2C(N)CC(N)C(OC3OC(CN)C(O)C(O)C3N)C2O)OCC1(C)O` (stereo not shown) [Antibiotic JI-20A sulfate]: 527 µg/mg.
`CNC1C(O)C(OC2C(N)CC(N)C(OC3OC(CN)C(O)C(O)C3N)C2O)OCC1(C)O` (stereo not shown) [Antibiotic JI-20A]: the “potency (assay against standard Antibiotic JI-20B base)” value in [1] (listed as Antibiotic JI-20A base) was 723 µg/mg. The MIC worked out at 7.05 µg/mL (≈ 14.6 µM) in series [2]; 7.5 µg/mL (≈ 15.6 µM) in [3]; 0.3 µg/mL (≈ 0.623 µM) in [4]; 3 µg/mL (≈ 6.23 µM) in [5]; 3 µg/mL (≈ 6.23 µM) in series [6]; 0.3 µg/mL (≈ 0.623 µM) in series [7]. The MIC was found to be 3 µg/mL (≈ 6.23 µM) in series [8]; 0.3 µg/mL (≈ 0.623 µM) in series [9]; 7.5 µg/mL (≈ 15.6 µM) in series [10]; 0.05 µg/mL (≈ 0.104 µM) in [11]; 0.8 µg/mL (≈ 1.66 µM) in series [12]. In series [13], this compound had a pKa of 8.1. The LD50 in [14] was 115 mg/kg. In addition, the ED50 in series [15] came out at 50 mg/kg; in [16], 3 mg/kg; in series [17], 3 mg/kg; in [18], 4 mg/kg; in [19], 2.9 mg/kg; in series [20] it was 15 mg/kg. Besides, the ED50 in series [21] worked out at 40 mg/kg; in [22] it was 50 mg/kg.
